# According to patent US8815875B2 (Merck Sharp & Dohme Corp., priority 2008, dated 2014):
# Biological target: FABP4 (Homo sapiens, UniProt P15090)
# Test: TdF (Temperature Dependence Fluorescence) assay, thermal shift, FABP4
# Type: binding
# Procedure, shortened: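 Binding measured as ΔTm versus protein alone; binding constants derived by nonlinear fitting with ΔHL set to −7 kcal/mol and ΔCpL to zero.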
# Sequence of FABP4 (P15090 whole entry, species assumed): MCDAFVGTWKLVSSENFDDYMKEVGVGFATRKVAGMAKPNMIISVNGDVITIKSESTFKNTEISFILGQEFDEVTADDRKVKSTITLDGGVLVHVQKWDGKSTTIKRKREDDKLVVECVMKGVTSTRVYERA
Compound,FABP4 TdF Kd,Kd [nM]
CC1(C)CCCC(OCc2[nH]c3nc(-c4ccccc4)nn3c(=O)c2Cl)C1 (stereo not drawn) [24-2],B (0.5 ≦ B < 0.001 μM),
COCc1c(Cl)cccc1OCc1cc(=O)n2nc(-c3ccccc3)nc2[nH]1 [22-2],B (0.5 ≦ B < 0.001 μM),
CCc1ccc(CCc2cc(=O)n3nc(-c4ccccc4)nc3[nH]2)cc1 [14-3],,> 500
O=c1cc(COc2ccc(C(F)(F)F)cc2)[nH]c2nc(-c3ccccc3)nn12 [1-7],,> 500
O=c1cc(COc2cccc(Cl)c2)[nH]c2nc(-c3ccccc3)nn12 [1-88],B (0.5 ≦ B < 0.001 μM),
Cn1nc(C2CC2)cc1NCc1cc(=O)n2nc(-c3ccccc3)nc2[nH]1 [1-151],,> 500
CC(C)(C)c1ccc(OCc2cc(=O)n3nc(-c4ccccc4)nc3[nH]2)c(Cl)c1 [1-71],,> 500
Cc1c(OCc2cc(=O)n3nc(-c4ccccc4)nc3[nH]2)cccc1C(F)(F)F [1-85],B (0.5 ≦ B < 0.001 μM),
CC(C)c1ccc(NCc2cc(=O)n3nc(-c4ccccc4)nc3[nH]2)cc1 [6-1],,> 500
O=C(NCC1(CO)CCC1)c1ccccc1OCc1[nH]c2nc(-c3ccccc3)nn2c(=O)c1Cl [24-10],,> 500
O=c1c(Cl)c(CN2CCCC2Cc2ccncn2)[nH]c2nc(-c3ccccc3)nn12 (stereo not drawn) [24-6],,> 500
O=c1cc(CN2CC[S+]([O-])CC2)[nH]c2nc(-c3ccccc3)nn12 [1-77],,> 500
Cc1c(Cl)cccc1OCc1[nH]c2nc(-c3ccccc3)nn2c(=O)c1Cl [3-1],B (0.5 ≦ B < 0.001 μM),
COc1cc(CC(C)=O)ccc1OCc1cc(=O)n2nc(-c3ccccc3)nc2[nH]1 [1-72],,> 500
CC1CC(OCc2cc(=O)n3nc(-c4ccccc4)nc3[nH]2)CC(C)(C)C1 (stereo not drawn) [1-99],B (0.5 ≦ B < 0.001 μM),
NCc1cccc(OCc2cc(=O)n3nc(-c4ccccc4)nc3[nH]2)c1C1CC1 [46-3],,> 500
O=c1cc(COc2cccc(Cl)c2CNCCN2CCOCC2)[nH]c2nc(-c3ccccc3)nn12 [33-2],,> 500
Cc1c(Cl)cccc1OCc1cc(=O)n2nc(-c3ccccn3)cc2[nH]1 [8-14],,> 500
CN(Cc1cc(=O)n2nc(-c3ccccc3)nc2[nH]1)C1Cc2ccccc2C1 [1-54],,> 500
Cc1ccc(OCc2cc(=O)n3nc(C(F)(F)F)nc3[nH]2)cc1C [5-4],,> 500
CCc1ccc(OCc2cc(=O)n3nc(C4CCC4)nc3[nH]2)cc1 [8-6],,> 500
Cc1nc(-c2ccc(OCc3cc(=O)n4nc(-c5ccccc5)nc4[nH]3)c(F)c2)cs1 [1-34],,> 500

Compound,FABP4 TdF Kd,Kd [nM]
COc1cc(OC)cc(OCc2cc(=O)n3nc(-c4ccccc4)nc3[nH]2)c1 [1-32],B (0.5 ≦ B < 0.001 μM),
Cc1c(Cl)cccc1OCc1cc(=O)n2nc(-c3ccccn3)nc2[nH]1 [25-3],B (0.5 ≦ B < 0.001 μM),
O=c1cc(COc2cccc(Cl)c2CO)[nH]c2nc(-c3ccccc3)nn12 [30-2],B (0.5 ≦ B < 0.001 μM),
Cc1cccc(OCc2cc(=O)n3nc(-c4ccccc4)nc3[nH]2)c1C [1-26],,> 500
C=CCc1ccc(Cl)cc1OCc1cc(=O)n2nc(-c3ccccc3)nc2[nH]1 [42-4],B (0.5 ≦ B < 0.001 μM),
CN1CCN(CCNCc2c(Cl)cccc2OCc2cc(=O)n3nc(-c4ccccc4)nc3[nH]2)CC1 [33-3],,> 500
Cc1ccc(C(C)C)cc1N(C)Cc1cc(=O)n2nc(-c3ccccc3)nc2[nH]1 [1-35],B (0.5 ≦ B < 0.001 μM),
N#Cc1cccc(OCc2cc(=O)n3nc(-c4ccccc4)nc3[nH]2)c1Cl [45-2],B (0.5 ≦ B < 0.001 μM),
CCc1ccc(OCc2cc(=O)n3nc(C(=O)OC)nc3[nH]2)cc1 [8-7],,> 500
Cc1c(Cl)cccc1OCc1cc(=O)n2nc(-c3cccs3)nc2[nH]1 [8-13],B (0.5 ≦ B < 0.001 μM),
Cc1c(Cl)cccc1NCc1cc(=O)n2ncnc2[nH]1 [4-2],,> 500
O=c1cc(CNc2ccc(F)c(F)c2)[nH]c2nc(C(F)(F)F)nn12 [5-5],,> 500
O=c1cc(COc2cccc(Cl)c2[N+](=O)[O-])[nH]c2nc(-c3ccccc3)nn12 [1-134],B (0.5 ≦ B < 0.001 μM),
CC1(C)CC(OCc2cc(=O)n3nc(-c4ccccc4)nc3[nH]2)CC(C)(C)C1 [1-97],B (0.5 ≦ B < 0.001 μM),
O=c1cc(Cn2ncc3ccccc32)[nH]c2nc(-c3ccccc3)nn12 [1-12],,> 500
CC(C)c1cccc(OCc2cc(=O)n3nc(-c4ccccc4)nc3[nH]2)c1 [1-25],,> 500
CN1CCC(OCc2cc(=O)n3nc(-c4ccccc4)nc3[nH]2)CC1 [1-45],,> 500
O=c1cc(CN2CCCC2Cc2ccccn2)[nH]c2nc(-c3ccccc3)nn12 (stereo not drawn) [1-139],,> 500
CCc1ccc(NCc2cc(=O)n3nc(-c4ccccc4)cc3[nH]2)cc1 [10-1],,> 500
CN(C)Cc1c(Cl)cccc1OCc1cc(=O)n2nc(-c3ccccc3)nc2[nH]1 [33-1],,> 500
CCc1ccc(OCc2cc(=O)n3nc(C(F)(F)F)nc3[nH]2)cc1 [8-2],,> 500
Cn1ccc(NCc2cc(=O)n3nc(-c4ccccc4)nc3[nH]2)n1 [1-90],,> 500

# Continued, values first:
FABP4 TdF Kd,Kd [nM],Compound
,> 500,CNC(=O)C1(OCc2cc(=O)n3nc(-c4ccccc4)nc3[nH]2)CCCCC1 [48-23]
,> 500,"O=C(c1c(Cl)cccc1OCc1cc(=O)n2nc(-c3ccccc3)nc2[nH]1)N1CCS(=O)(=O)CC1 [47-6, 4-[2-chloro-6-[(4,7-dihydro-7-oxo-2-phenyl[1,2,4]triazolo[1,5-a]pyrimidin-5-yl)methoxy]benzoyl]thiomorpholine, 1,1-dioxide]"
B (0.5 ≦ B < 0.001 μM),,CC1(C)CN(C(=O)C2(OCc3cc(=O)n4nc(-c5ccccc5)nc4[nH]3)CCCCC2)CCO1 [48-25]
B (0.5 ≦ B < 0.001 μM),,O=C(NCCC1CC1)c1ccccc1OCc1cc(=O)n2nc(-c3ccccc3)nc2[nH]1 [47-61]
B (0.5 ≦ B < 0.001 μM),,COC(=O)C1(NC(=O)C2(OCc3cc(=O)n4nc(-c5ccccc5)nc4[nH]3)CCCCC2)CCCCC1 [48-53]
B (0.5 ≦ B < 0.001 μM),,Cc1ccccc1C1(NC(=O)C2(OCc3cc(=O)n4nc(-c5ccccc5)nc4[nH]3)CCCCC2)CC1 [48-50]
B (0.5 ≦ B < 0.001 μM),,"O=C(NCC1(CO)CCC1)c1c(Cl)cccc1OCc1cc(=O)n2nc(-c3ccccc3)nc2[nH]1 [47-30, 2-chloro-N-((1-(hydroxymethyl)cyclobutyl)methyl)-6-((7-oxo-2-phenyl-4,7-dihydro-[1,2,4]triazolo[1,5-a]pyrimidin-5-yl)methoxy)benzamide]"
B (0.5 ≦ B < 0.001 μM),,"O=C(Nc1cc(C2CC2)n[nH]1)c1c(Cl)cccc1OCc1cc(=O)n2nc(-c3ccccc3)nc2[nH]1 [47-32, 2-chloro-N-(3-cyclopropyl-1H-pyrazol-5-yl)-6-((7-oxo-2-phenyl-4,7-dihydro-[1,2,4]triazolo[1,5-a]pyrimidin-5-yl)methoxy)benzamide]"
B (0.5 ≦ B < 0.001 μM),,"O=C(O)c1c(Cl)cccc1OCc1cc(=O)n2nc(-c3ccccc3)nc2[nH]1 [47-1, 2-chloro-6-((7-oxo-2-phenyl-4,7-dihydro-[1,2,4]triazolo[1,5-a]pyrimidin-5-yl)methoxy)benzoic acid]"
,> 500,O=C(NC1(CO)CCOCC1)C1(OCc2cc(=O)n3nc(-c4ccccc4)nc3[nH]2)CCCCC1 [48-69]
,≤ 1,"CC1(CNC(=O)c2c(Cl)cccc2OCc2cc(=O)n3nc(-c4ccccc4)nc3[nH]2)COC1 [47-28, 2-chloro-N-((3-methyloxetan-3-yl)methyl)-6-((7-oxo-2-phenyl-4,7-dihydro-[1,2,4]triazolo[1,5-a]pyrimidin-5-yl)methoxy)benzamide]"
B (0.5 ≦ B < 0.001 μM),,"O=C(NC1(CO)CCOCC1)c1c(Cl)cccc1OCc1cc(=O)n2nc(-c3ccccc3)nc2[nH]1 [47-21, 2-chloro-N-(4-(hydroxymethyl)tetrahydro-2H-pyran-4-yl)-6-((7-oxo-2-phenyl-4,7-dihydro-[1,2,4]triazolo[1,5-a]pyrimidin-5-yl)methoxy)benzamide]"
B (0.5 ≦ B < 0.001 μM),,O=C(NCC1CC1)c1c(Cl)cccc1OCc1cc(=O)n2nc(-c3ccccc3)nc2[nH]1 [47-3]
B (0.5 ≦ B < 0.001 μM),,CN(C(=O)C1(OCc2cc(=O)n3nc(-c4ccccc4)nc3[nH]2)CCCCC1)C1CCCCC1 [48-27]
B (0.5 ≦ B < 0.001 μM),,O=C(NC1(CO)CCC1)c1c(Cl)cccc1OCc1cc(=O)n2nc(-c3ccccc3)nc2[nH]1 [47-35]
B (0.5 ≦ B < 0.001 μM),,O=C(NC1CCCCC1)c1ccccc1OCc1cc(=O)n2nc(-c3ccccc3)nc2[nH]1 [47-63]
B (0.5 ≦ B < 0.001 μM),,COCC1(CNC(=O)c2ccccc2OCc2cc(=O)n3nc(-c4ccccc4)nc3[nH]2)CC1 [47-64]
B (0.5 ≦ B < 0.001 μM),,O=C(NCC1(c2ccccc2Cl)CC1)c1ccccc1OCc1cc(=O)n2nc(-c3ccccc3)nc2[nH]1 [47-60]
B (0.5 ≦ B < 0.001 μM),,"O=C(NCC1(CO)CC1)c1c(Cl)cccc1OCc1cc(=O)n2nc(-c3ccccc3)nc2[nH]1 [47-18, 2-chloro-N-((1-(hydroxymethyl)cyclopropyl)methyl)-6-((7-oxo-2-phenyl-4,7-dihydro-[1,2,4]triazolo[1,5-a]pyrimidin-5-yl)methoxy)benzamide]"
B (0.5 ≦ B < 0.001 μM),,CC(NC(=O)c1c(Cl)cccc1OCc1cc(=O)n2nc(-c3ccccc3)nc2[nH]1)C1CCC1 (stereo not drawn) [47-36]
,> 500,O=C(N1CCC[C@@H]1CO)C1(OCc2cc(=O)n3nc(-c4ccccc4)nc3[nH]2)CCCCC1 [48-66]
,> 500,NC1(COC(=O)C2(OCc3cc(=O)n4nc(-c5ccccc5)nc4[nH]3)CCCCC2)CCOCC1 [48-68]
B (0.5 ≦ B < 0.001 μM),,"O=C(NCC1(CO)CCCC1)c1c(Cl)cccc1OCc1cc(=O)n2nc(-c3ccccc3)nc2[nH]1 [47-20, 2-chloro-N-((1-(hydroxymethyl)cyclopentyl)methyl)-6-((7-oxo-2-phenyl-4,7-dihydro-[1,2,4]triazolo[1,5-a]pyrimidin-5-yl)methoxy)benzamide]"
B (0.5 ≦ B < 0.001 μM),,O=C(NC1(CO)CCCCC1)c1c(Cl)cccc1OCc1cc(=O)n2nc(-c3ccccc3)nc2[nH]1 [47-14]
B (0.5 ≦ B < 0.001 μM),,O=C(NCC1(c2ccccc2Cl)CCC1)C1(OCc2cc(=O)n3nc(-c4ccccc4)nc3[nH]2)CCCCC1 [48-34]
